The values below come from US4173481A (priority 1976, dated 1979).

The nature of experiment [1]: Melting Time in 0.2 N aqueous sodium hydroxide at 60° C. Particulars: 0.2 N NaOH. As to the method: An emulsion for a green-sensitive layer of a color negative light-sensitivematerial obtained in the same manner as described in Example 1 was divided into four portions, a first portion was used as a control. To the other three portions were added an aqueous solution of Compound 1, 1,3,5-tris(β-vinylsulfonylpropyl)hexahydro-s-triazine (Compound C), bis(vinylsulfonylmethyl) ether (Compound D) in an amount of 1.5 g per 100 g of dry gelatin, respectively. Each emulsion was coated on a subbed polyethylene terephthalate support at a thickness of 5μ and dried.
The strength of the layer was determined using the two methods described below with samples stored at 25° C., 65% RH for 2 days or for 20 days and a sample heat treated at 50° C., 80% RH for 2 days.
A sample strip was immersed in a 0.2 N aqueous solution of sodium hydroxide at 60° C. and the time (min) when the emulsion layer began to melt was measured.

Experiment [2] in a line: Strength of gelatin layer surface. The note with it: 65% RH, 5×10^-5 mol per g of dry gelatin. As to the method:
A sample was immersed in water at 25° C. for 5 minutes. A pin equipped with a steel ball having a radius of 0.2 mm on the point thereof was pressed on the surface of the sample and the pin was moved at a rate of 5 mm per second on the surface of the sample while the load applied to the pin was continuously varied in the range of 0 to 100 g. The load (g) at which a scratch occurred on the surface was measured.
A 5% solution of gelatin was divided into four portions, a first portion was used as a control and to the other three portions were added Compound 1 of the present invention, Compound B and Compound E in an amount of 5×10^-5 mol per g of dry gelatin, respectively. Each gelatin solution was coated on a subbed polyester film support and dried.
After storing the samples obtained under conditions of 25° C., 65% RH, the strength of the gelatin layer surface thereof was determined.

A short description of experiment [3]: Photographic properties (fog, relative sensitivity, maximum density of the magenta dye image). The note with it: 1.5 g per 100 g of dry gelatin, Table 1; for Relative Sensitivity: control = 100; for Maximum Density: magenta dye image. The method, then: A silver iodobromide emulsion containing 6.0 mol % of silver iodide was optimally ripened using a sulfur-containing sensitizer and a gold sensitizer to prepare a high speed negative emulsion. To the emulsion were added anhydro-5,5'-tetrachloro-1,1'-diethyl-3,3'-di-(3-sulfopropyl)-benzimidazolocarbocyanine hydroxide as a spectral sensitizer, 4-hydroxy-6-methyl-1,3,3a,7-tetrazaindene as a stabilizer, and 1-(2,4,6-trichlorophenyl)-3-[3-(2,4-di-tert-amylphenoxyacetamide)benzamido]-5-pyrazolone (which was dissolved in tricresyl phosphate and ethyl acetate and dispersed in gelatin with sodium dodecylbenzenesulfonate) as a magenta color forming coupler to prepare an emulsion for a green-sensitivelayer of a color negative light-sensitive material. The emulsion thus-obtained was divided into four portions and a first portion was used as control. To the other three portions were added an aqueous solution of Compound 1 of the present invention, dimethylol urea (Compound A) and mucochloric acid (Compound B), respectively, in an amount of 1.5 g per 100 g of dry gelatin. Each emulsion was coated on a subbed cellulose triacetate support in a coated coupler amount of 1.5×10^-3 mol/m^2 and dried.
These samples were exposed to green light using an NSG II type sensitometer and processed according to the color processing procedure as described in Example 1 of Japanese patent application (OPI) No. 51940/1976 as follows.
The density of the magenta dye image thus-obtained was measured and fog, relative sensitivity and maximum density were determined.

Regarding “1,3,5-tris(β-vinylsulfonylpropyl)hexahydro-s-triazine [Compound C]”, the “Melting Time” value in experiment [1] (2 Days Heated, 50° C., 80% RH) is on record as 3 min; in experiment [1] (2 Days at 25° C., 65% RH) it was 1 min; in experiment [1] (20 Days at 25° C., 65% RH), 2.5 min.

Consider `C=CS(=O)(=O)CC(O)CS(=O)(=O)C=C` [Compound 1, 1,3-bis(Vinylsulfonyl)-2-propanol], for which the “Strength of Layer Surface” value in experiment [2] (2 Days at 25° C.) came to 48 g; in experiment [2] (7 Days at 25° C.), 56 g; in experiment [2] (14 Days at 25° C.), 58 g; in experiment [2] (21 Days at 25° C.), 60 g. The “Melting Time” value in experiment [1] (2 Days Heated, 50° C., 80% RH) is reported as 30 min; in experiment [1] (2 Days at 25° C., 65% RH) it was 13.5 min; in experiment [1] (20 Days at 25° C., 65% RH) it was 27 min. This compound also displayed a Fog in experiment [3] of 0.10. In experiment [3], the “Relative Sensitivity” value is on record as 92. For the same compound, the “Maximum Density” value in experiment [3] came to 2.80.

As to `O=C/C(Cl)=C(/Cl)C(=O)O` [Compound B, mucochloric acid], the “Strength of Layer Surface” value in experiment [2] (2 Days at 25° C.) was 21 g; in experiment [2] (7 Days at 25° C.) it was 36 g; in experiment [2] (14 Days at 25° C.), 45 g; in experiment [2] (21 Days at 25° C.) it was 52 g. The Fog in experiment [3] is listed as 0.14. In addition, in experiment [3], the “Relative Sensitivity” value is reported as 85. For the same compound, in experiment [3], the “Maximum Density” value stood at 2.70.

In the case of `C=CS(=O)(=O)CCS(=O)(=O)C=C` [Compound E, 1,2-bis(vinylsulfonyl)ethane], the “Strength of Layer Surface” value in experiment [2] (2 Days at 25° C.) was 18 g; in experiment [2] (7 Days at 25° C.) it was 25 g; in experiment [2] (14 Days at 25° C.) it was 32 g; in experiment [2] (21 Days at 25° C.), 36 g.
